# Data from patent publication US20220041681A1 (MEDIMMUNE LIMITED, priority 2016, published 2022).
# Tested on: Healthy volunteer
# Assay: Phase 1 single-ascending dose study
# Settings: for TEAE: Abdominal distension / TEAE: Abdominal pain / TEAE: Application site erosion / TEAE: Arrhythmia / TEAE: Atrioventricular block second degree / TEAE: Cardiac Disorders / TEAE: Decreased appetite / TEAE: Diarrhea / TEAE: Dizziness / TEAE: Gastrointestinal Disorders / TEAE: Headache / TEAE: Immune System Disorders / TEAE: Injury associated with device / TEAE: Injury poisoning and procedural complications / TEAE: Metabolism and nutrition disorders / TEAE: Musculoskeletal and connective tissue disorders / TEAE: Musculoskeletal chest pain / TEAE: Nasopharyngitis / TEAE: Nausea / TEAE: Nervous system disorders / TEAE: Oropharyngeal pain / TEAE: Procedural dizziness / TEAE: Respiratory, thoracic and mediastinal disorders / TEAE: Seasonal allergy / TEAE: Subjects with at least one event / TEAE: Ventricular extrasystoles / TEAE: Vomiting: N = 6, subjects n (%)
smiles,measurement,setting,value
CCCCCCCCCCCCCCCC(=O)N[C@@H](CCC(=O)NCCCC[C@H](NC(=O)[C@H](CC(=O)O)NC(=O)[C@H](CO)NC(=O)C(NC(=O)[C@H](Cc1ccccc1)NC(=O)C(NC(=O)CNC(=O)[C@H](CCC(N)=O)NC(=O)[C@H](CO)NC(=O)[C@@H](N)Cc1cnc[nH]1)[C@@H](C)O)[C@@H](C)O)C(=O)N[C@@H](CO)C(=O)N[C@@H](CCC(=O)O)C(=O)N[C@@H](Cc1ccc(O)cc1)C(=O)N[C@@H](CC(C)C)C(=O)N[C@@H](CC(=O)O)C(=O)N[C@@H](CO)C(=O)N[C@@H](CCC(=O)O)C(=O)N[C@@H](CCCNC(=N)N)C(=O)N[C@@H](C)C(=O)N[C@@H](CCCNC(=N)N)C(=O)N[C@@H](CC(=O)O)C(=O)N[C@@H](Cc1ccccc1)C(=O)N[C@H](C(=O)N[C@@H](C)C(=O)N[C@@H](Cc1c[nH]c2ccccc12)C(=O)N[C@@H](CC(C)C)C(=O)N[C@@H](CCC(=O)O)C(=O)N[C@@H](C)C(=O)NCC(=O)NCC(=O)O)C(C)C)C(=O)O (stereo partly shown) [Peptide G933],TEAE: Abdominal distension,5 μg,0
same,TEAE: Abdominal pain,5 μg,0
same,TEAE: Application site erosion,5 μg,0
same,TEAE: Arrhythmia,5 μg,0
same,TEAE: Atrioventricular block second degree,5 μg,0
same,TEAE: Cardiac Disorders,5 μg,0
same,TEAE: Decreased appetite,5 μg,0
same,TEAE: Diarrhea,5 μg,0
same,TEAE: Dizziness,5 μg,0
same,TEAE: Gastrointestinal Disorders,5 μg,0
same,TEAE: Headache,5 μg,1 (16.7%)
same,TEAE: Immune System Disorders,5 μg,0
same,TEAE: Injury associated with device,5 μg,0
same,TEAE: Injury poisoning and procedural complications,5 μg,0
same,TEAE: Metabolism and nutrition disorders,5 μg,0
same,TEAE: Musculoskeletal and connective tissue disorders,5 μg,0
same,TEAE: Musculoskeletal chest pain,5 μg,0
same,TEAE: Nasopharyngitis,5 μg,1 (16.7%)
same,TEAE: Nausea,5 μg,0
same,TEAE: Nervous system disorders,5 μg,1 (16.7%)
same,TEAE: Oropharyngeal pain,5 μg,0
same,TEAE: Procedural dizziness,5 μg,0
same,"TEAE: Respiratory, thoracic and mediastinal disorders",5 μg,0
same,TEAE: Seasonal allergy,5 μg,0
same,TEAE: Subjects with at least one event,5 μg,2 (33.3%)
same,TEAE: Ventricular extrasystoles,5 μg,0
same,TEAE: Vomiting,5 μg,0
same,TEAE: Abdominal distension,10 μg,0
same,TEAE: Abdominal pain,10 μg,1 (16.7%)
same,TEAE: Application site erosion,10 μg,0
same,TEAE: Arrhythmia,10 μg,0
same,TEAE: Atrioventricular block second degree,10 μg,1 (16.7%)
same,TEAE: Cardiac Disorders,10 μg,1 (16.7%)
same,TEAE: Decreased appetite,10 μg,0
same,TEAE: Diarrhea,10 μg,1 (16.7%)
same,TEAE: Dizziness,10 μg,1 (16.7%)
same,TEAE: Gastrointestinal Disorders,10 μg,1 (16.7%)
same,TEAE: Headache,10 μg,0
same,TEAE: Immune System Disorders,10 μg,0
same,TEAE: Injury associated with device,10 μg,0
same,TEAE: Injury poisoning and procedural complications,10 μg,0
same,TEAE: Metabolism and nutrition disorders,10 μg,0
same,TEAE: Musculoskeletal and connective tissue disorders,10 μg,0
same,TEAE: Musculoskeletal chest pain,10 μg,0
same,TEAE: Nasopharyngitis,10 μg,0
same,TEAE: Nausea,10 μg,0
same,TEAE: Nervous system disorders,10 μg,1 (16.7%)
same,TEAE: Oropharyngeal pain,10 μg,0
same,TEAE: Procedural dizziness,10 μg,0
same,"TEAE: Respiratory, thoracic and mediastinal disorders",10 μg,0
same,TEAE: Seasonal allergy,10 μg,0
same,TEAE: Subjects with at least one event,10 μg,3 (50.0%)
same,TEAE: Ventricular extrasystoles,10 μg,0
same,TEAE: Vomiting,10 μg,0
same,TEAE: Abdominal distension,30 μg,0
same,TEAE: Abdominal pain,30 μg,0
same,TEAE: Application site erosion,30 μg,1 (16.7%)
same,TEAE: Arrhythmia,30 μg,0
same,TEAE: Atrioventricular block second degree,30 μg,0
same,TEAE: Cardiac Disorders,30 μg,0
same,TEAE: Decreased appetite,30 μg,0
same,TEAE: Diarrhea,30 μg,0
same,TEAE: Dizziness,30 μg,1 (16.7%)
same,TEAE: Gastrointestinal Disorders,30 μg,0
same,TEAE: Headache,30 μg,1 (16.7%)
same,TEAE: Immune System Disorders,30 μg,1 (16.7%)
same,TEAE: Injury associated with device,30 μg,0
same,TEAE: Injury poisoning and procedural complications,30 μg,1 (16.7%)
same,TEAE: Metabolism and nutrition disorders,30 μg,0
same,TEAE: Musculoskeletal and connective tissue disorders,30 μg,1 (16.7%)
same,TEAE: Musculoskeletal chest pain,30 μg,1 (16.7%)
same,TEAE: Nasopharyngitis,30 μg,0
same,TEAE: Nausea,30 μg,0
same,TEAE: Nervous system disorders,30 μg,1 (16.7%)
same,TEAE: Oropharyngeal pain,30 μg,0
same,TEAE: Procedural dizziness,30 μg,1 (16.7%)
same,"TEAE: Respiratory, thoracic and mediastinal disorders",30 μg,0
same,TEAE: Seasonal allergy,30 μg,1 (16.7%)
same,TEAE: Subjects with at least one event,30 μg,4 (66.7%)
same,TEAE: Ventricular extrasystoles,30 μg,0
same,TEAE: Vomiting,30 μg,0
same,vomiting episodes,"100 μg dose, 1 subject",1 episode
same,TEAE: Abdominal distension,100 μg,0
same,TEAE: Abdominal pain,100 μg,0
same,TEAE: Application site erosion,100 μg,0
same,TEAE: Arrhythmia,100 μg,1 (16.7%)
same,TEAE: Atrioventricular block second degree,100 μg,0
same,TEAE: Cardiac Disorders,100 μg,1 (16.7%)
same,TEAE: Decreased appetite,100 μg,0
same,TEAE: Diarrhea,100 μg,0
same,TEAE: Dizziness,100 μg,0
same,TEAE: Gastrointestinal Disorders,100 μg,1 (16.7%)
same,TEAE: Headache,100 μg,1 (16.7%)
same,TEAE: Immune System Disorders,100 μg,0
same,TEAE: Injury associated with device,100 μg,0
same,TEAE: Injury poisoning and procedural complications,100 μg,0
same,TEAE: Metabolism and nutrition disorders,100 μg,0
same,TEAE: Musculoskeletal and connective tissue disorders,100 μg,0
same,TEAE: Musculoskeletal chest pain,100 μg,0
same,TEAE: Nasopharyngitis,100 μg,0
same,TEAE: Nausea,100 μg,1 (16.7%)
same,TEAE: Nervous system disorders,100 μg,2 (33.3%)
same,TEAE: Oropharyngeal pain,100 μg,0
same,TEAE: Procedural dizziness,100 μg,0
same,"TEAE: Respiratory, thoracic and mediastinal disorders",100 μg,0
same,TEAE: Seasonal allergy,100 μg,0
same,TEAE: Ventricular extrasystoles,100 μg,0
same,TEAE: Vomiting,100 μg,1 (16.7%)
same,vomiting episodes,"150 μg dose, 4 subjects",9 episodes
same,TEAE: Abdominal distension,150 μg,2 (3.3%)
same,TEAE: Abdominal pain,150 μg,0
same,TEAE: Application site erosion,150 μg,0
same,TEAE: Arrhythmia,150 μg,0
same,TEAE: Atrioventricular block second degree,150 μg,0
same,TEAE: Cardiac Disorders,150 μg,0
same,TEAE: Decreased appetite,150 μg,2 (33.3%)
same,TEAE: Diarrhea,150 μg,0
same,TEAE: Dizziness,150 μg,2 (33.3%)
